Test results reported in patent US20210138025A1, “CATIONIC PEPTIDES WITH IMMUNOMODULATORY AND/OR ANTI-BIOFILM ACTIVITIES” (priority 2018, published 2021).
≈ marks a conversion by molar mass, not a printed value. Values belong to the compound of their own block, whether it stands above or below them. Non-standard residues stand in square brackets, D forms with d. Residues, ends and D or L forms follow the SMILES beside them. No end group written: not given here.

How the values were obtained:
[1] = system: Bordatella bronchiseptica (Bb); assay type: cell-based
Experimental: (§1) The following strains were assessed vs. Staphylococcus epidermidis (Se), Pseudomonas aeruginosa (Pa), Streptococcus dysgalactiae (Sd), Pasteurella multocida (Pm), Streptococcus agalactiae (Sa), Streptococcus uberis (Su), Streptococcus suis (Ss), Mannheimia haemolytica (Mh), Bordatella bronchiseptica (Bb), Histophilus somnus (Hs), and Staphylococcus pseudintermedius (Sp) (Table 18) for Minimal Inhibitory Concentrations (MIC). Italics=excellent activity (less than or equal to 4 μg/ml).

Histophilus somnus (Hs) [2] = assay type: cell-based
Experimental: as §1

[3] = system: Mannheimia haemolytica (Mh); assay type: cell-based
Experimental: as §1

[4] = system: Pasteurella multocida (Pm); assay type: cell-based
Experimental: as §1

[5] = system: Pseudomonas aeruginosa (Pa); assay type: cell-based
Experimental: as §1

[6] = system: Staphylococcus epidermidis (Se); assay type: cell-based
Experimental: as §1

[7] = system: Staphylococcus pseudintermedius (Sp); assay type: cell-based
Experimental: as §1

[8] = system: Streptococcus agalactiae (Sa); assay type: cell-based
Experimental: as §1

[9] = system: Streptococcus dysgalactiae (Sd); assay type: cell-based
Experimental: as §1

Streptococcus suis (Ss) [10] = assay type: cell-based
Experimental: as §1

[11] = system: Streptococcus uberis (Su); assay type: cell-based
Experimental: as §1

E. coli (Ec) [12] = assay type: cell-based; settings: Ec
S. aureus (Sau) [13] = assay type: cell-based; settings: Sau
[14] = system: Bordatella bronchiseptica (Bb); assay type: cell-based; remark: listed apart in the source
Experimental: (§2) The same strains as in Table 18 were assessed for Minimal Biofilm Inhibitory Concentrations (MBIC) (Table 19). Italics=excellent activity (less than or equal to 4 μg/ml). ND=Not determined. Peptides 3013, 3015 and 3016 inhibited biofilm growth in the largest number of bacterial strains (5, 5 and 6 out of 13 strains, respectively).

Histophilus somnus (Hs) [15] = assay type: cell-based; remark: listed apart in the source
Experimental: as §2

[16] = system: Mannheimia haemolytica (Mh); assay type: cell-based; remark: listed apart in the source
Experimental: as §2

[17] = system: Pasteurella multocida (Pm); assay type: cell-based; remark: listed apart in the source
Experimental: as §2

[18] = system: Pseudomonas aeruginosa (Pa); assay type: cell-based; remark: listed apart in the source
Experimental: as §2

[19] = system: Staphylococcus epidermidis (Se); assay type: cell-based; remark: listed apart in the source
Experimental: as §2

[20] = system: Staphylococcus pseudintermedius (Sp); assay type: cell-based; remark: listed apart in the source
Experimental: as §2

[21] = system: Streptococcus agalactiae (Sa); assay type: cell-based; remark: listed apart in the source
Experimental: as §2

[22] = system: Streptococcus dysgalactiae (Sd); assay type: cell-based; remark: listed apart in the source
Experimental: as §2

Streptococcus suis (Ss) [23] = assay type: cell-based; remark: listed apart in the source
Experimental: as §2

[24] = system: Streptococcus uberis (Su); assay type: cell-based; remark: listed apart in the source
Experimental: as §2

E. coli (Ec) [25] = assay type: cell-based; settings: Ec; remark: listed apart in the source
S. aureus (Sau) [26] = assay type: cell-based; settings: Sau; remark: listed apart in the source
CCL5 [27] = test: CCL5 production by peptide alone and in presence of LPS, bovine cells (Table 21); assay type: cell-based; settings: peptide 32 μg/ml
Experimental: (§3) A subset of peptides was tested for stimulation of the chemokine CCL5 (Table 21).

CCL5 [28] = test: CCL5 production by peptide alone and in presence of Con A, canine cells (Table 21); assay type: cell-based; settings: peptide 32 μg/ml
Experimental: as §3

monocytes [29] = test: Cytokine production in unstimulated monocytes, bovine (Table 22); assay type: cell-based; settings: background subtracted
Experimental: (§4) A subset of peptides was tested for stimulation of cytokine production in monocytes (Table 22). For the tested cytokines, the peptides tended to show anti-inflammatory activity rather than […] activity.

monocytes [30] = test: Cytokine production in unstimulated monocytes, canine (Table 22); assay type: cell-based; settings: background subtracted
Experimental: as §4

LPS stimulated monocytes = test: Anti-inflammatory activity in LPS stimulated monocytes, bovine (Table 23); assay type: cell-based; settings: 32 μg/ml peptide, negative = increase
[31] = system: ConA stimulated monocytes; test: Anti-inflammatory activity in ConA stimulated monocytes, canine (Table 23); assay type: cell-based; settings: 32 μg/ml peptide, negative = increase
T-lymphocytes [32] = test: Cytokine production in T-lymphocytes, bovine (Table 24); assay type: cell-based; settings: no additional stimulant, background (NONE) subtracted
T-lymphocytes [33] = test: Cytokine production in T-lymphocytes, canine (Table 24); assay type: cell-based; settings: no additional stimulant, background (NONE) subtracted
T-lymphocytes [34] = test: Anti-inflammatory activity towards stimulated T-lymphocytes, bovine (Table 25); assay type: cell-based; settings: Bovine T-cells, 32 μg/ml of peptide
T-lymphocytes [35] = test: Anti-inflammatory activity towards stimulated T-lymphocytes, canine (Table 25); assay type: cell-based; settings: Canine T-cells, 32 μg/ml of peptide
E. coli O157:H7 = test: Biofilm inhibition, static microtitre plate assay, crystal violet (Table 17); settings: BM2 minimal media
[36] = system: Salmonella typhimurium (ATCC 14028); test: as above; settings: BM2 minimal media
[37] = system: S. aureus (methicillin resistant clinical isolate C623); test: Biofilm inhibition, static microtitre plate assay, crystal violet (Table 17; FIG. 19); settings: 10% tryptic soy broth with 0.1% glucose
P. aeruginosa (PAO1) = test: as above; settings: BM2 minimal media

MIC Bb [1]: 4 µg/mL (≈ 2.58 µM)
MIC Hs (Histophilus somnus (Hs) [2]): 32 µg/mL (≈ 20.6 µM)
MIC Pm [4]: 8 µg/mL (≈ 5.16 µM)
MIC Pa [5]: 4 µg/mL (≈ 2.58 µM)
MIC Se [6]: 2 µg/mL (≈ 1.29 µM)
MIC Sp [7]: <1 µg/mL
MIC Sa [8]: 2 µg/mL (≈ 1.29 µM)
MIC Sd [9]: <1 µg/mL
MIC Ss (Streptococcus suis (Ss) [10]): <1 µg/mL
MIC Su [11]: <1 µg/mL
MIC E. coli (E. coli (Ec) [12]): <1 µg/mL
MIC Ec (E. coli (Ec) [12]): <1 µg/mL
MIC S. aureus (S. aureus (Sau) [13]): 2 µg/mL (≈ 1.29 µM)
MIC Sau (S. aureus (Sau) [13]): 2 µg/mL (≈ 1.29 µM)
Compound: CC[C@@H](C)[C@@H](NC(=O)[C@@H](C)NC(=O)[C@@H](CCCNC(=N)N)NC(=O)[C@@H](Cc1c[nH]c2ccccc12)NC(=O)[C@@H](CCC(N)=O)NC(=O)[C@H](N)C(C)C)C(=O)N[C@H](CCCNC(=N)N)C(=O)N[C@@H](C(=O)N[C@H](CCCNC(=N)N)C(=O)N[C@@H](C(=O)N[C@@H](C(=O)N[C@H](CCCNC(=N)N)C(N)=O)[C@H](C)CC)C(C)C)C(C)C [DJK5, VQWRAIRVRVIR] (H-[dV][dQ][dW][dR][dA][dI][dR][dV][dR][dV][dI][dR]-NH2; N-terminus and C-terminus assumed)
MIC Mh [3]: 8 µg/mL (≈ 5.16 µM)
MBIC [14]: 2 µg/mL
MBIC (Histophilus somnus (Hs) [15]): <1 µg/mL
MBIC [16]: 4 µg/mL
MBIC [17]: 2 µg/mL
MBIC [18]: 8 µg/mL
MBIC [19]: 2 µg/mL
MBIC [20]: <1 µg/mL
MBIC [21]: 2 µg/mL
MBIC [22]: 2 µg/mL
MBIC (Streptococcus suis (Ss) [23]): 4 µg/mL
MBIC [24]: 2 µg/mL
MBIC (E. coli (Ec) [25]): <1 µg/mL
MBIC E. coli (E. coli (Ec) [25]): <1 µg/mL
MBIC (S. aureus (Sau) [26]): <1 µg/mL
MBIC S. aureus (S. aureus (Sau) [26]): <1 µg/mL
Concentration of CCL5 in the absence of stimulation by LPS or ConA (CCL5 [27]; Bovine Monocyte): 825
Concentration of CCL5 in the absence of stimulation by LPS or ConA (CCL5 [27]; Bovine T-cells): 195
% CCL5 production relative to that of LPS/ConA (CCL5 [27]; Bovine/LPS Monocyte): 105%
% CCL5 production relative to that of LPS/ConA (CCL5 [27]; Bovine/LPS T-cells): 79%
Concentration of CCL5 in the absence of stimulation by LPS or ConA (CCL5 [28]; Canine Monocyte): 442
Concentration of CCL5 in the absence of stimulation by LPS or ConA (CCL5 [28]; Canine T-cells): 290
% CCL5 production relative to that of LPS/ConA (CCL5 [28]; Canine/ConA Monocyte): 81%
% CCL5 production relative to that of LPS/ConA (CCL5 [28]; Canine/ConA T-cells): 26%
Concentration of Monocyte cytokine IFNγ in absence of additional stimulant (monocytes [29]): -3 pg/mL
Concentration of Monocyte cytokine IL-2 in absence of additional stimulant (monocytes [29]): -103 pg/mL
Concentration of Monocyte cytokine IL-4 in absence of additional stimulant (monocytes [29]): -196 pg/mL
Concentration of Monocyte cytokine IL-6 in absence of additional stimulant (monocytes [29]): 75 pg/mL
Concentration of Monocyte cytokine IL-13 in absence of additional stimulant (monocytes [29]): 294 pg/mL
Concentration of Monocyte cytokine TNFα in absence of additional stimulant (monocytes [29]): -218 pg/mL
Concentration of Monocyte cytokine IFNγ in absence of additional stimulant (monocytes [30]): -310 pg/mL
Concentration of Monocyte cytokine IL-2 in absence of additional stimulant (monocytes [30]): 86 pg/mL
Concentration of Monocyte cytokine IL-4 in absence of additional stimulant (monocytes [30]): -241 pg/mL
Concentration of Monocyte cytokine IL-6 in absence of additional stimulant (monocytes [30]): -113 pg/mL
Concentration of Monocyte cytokine IL-13 in absence of additional stimulant (monocytes [30]): -25 pg/mL
Concentration of Monocyte cytokine TNFα in absence of additional stimulant (monocytes [30]): -73 pg/mL
% Monocyte cytokine decrease in presence of LPS/ConA, IFNγ (LPS stimulated monocytes): 31.6%
% Monocyte cytokine decrease in presence of LPS/ConA, IL-2 (LPS stimulated monocytes): 34.0%
% Monocyte cytokine decrease in presence of LPS/ConA, IL-4 (LPS stimulated monocytes): 3.9%
% Monocyte cytokine decrease in presence of LPS/ConA, IL-6 (LPS stimulated monocytes): 21.0%
% Monocyte cytokine decrease in presence of LPS/ConA, IL-13 (LPS stimulated monocytes): 65.5%
% Monocyte cytokine decrease in presence of LPS/ConA, TNFα (LPS stimulated monocytes): 68.1%
% Monocyte cytokine decrease in presence of LPS/ConA, IFNγ [31]: 13.7%
% Monocyte cytokine decrease in presence of LPS/ConA, IL-2 [31]: 38.9%
% Monocyte cytokine decrease in presence of LPS/ConA, IL-4 [31]: 32.6%
% Monocyte cytokine decrease in presence of LPS/ConA, IL-6 [31]: 39.9%
% Monocyte cytokine decrease in presence of LPS/ConA, IL-13 [31]: 36.5%
% Monocyte cytokine decrease in presence of LPS/ConA, TNFα [31]: 44.3%
Concentration of T-cell cytokines in the absence of additional stimulant: IFNγ (T-lymphocytes [32]): -12 pg/mL
Concentration of T-cell cytokines in the absence of additional stimulant: IL-2 (T-lymphocytes [32]): -66 pg/mL
Concentration of T-cell cytokines in the absence of additional stimulant: IL-4 (T-lymphocytes [32]): -73 pg/mL
Concentration of T-cell cytokines in the absence of additional stimulant: IL-6 (T-lymphocytes [32]): -92 pg/mL
Concentration of T-cell cytokines in the absence of additional stimulant: IL-13 (T-lymphocytes [32]): 178 pg/mL
Concentration of T-cell cytokines in the absence of additional stimulant: TNFα (T-lymphocytes [32]): 113 pg/mL
Concentration of T-cell cytokines in the absence of additional stimulant: IFNγ (T-lymphocytes [33]): 11 pg/mL
Concentration of T-cell cytokines in the absence of additional stimulant: IL-2 (T-lymphocytes [33]): 13 pg/mL
Concentration of T-cell cytokines in the absence of additional stimulant: IL-4 (T-lymphocytes [33]): 71 pg/mL
Concentration of T-cell cytokines in the absence of additional stimulant: IL-6 (T-lymphocytes [33]): 149 pg/mL
Concentration of T-cell cytokines in the absence of additional stimulant: IL-13 (T-lymphocytes [33]): -100 pg/mL
Concentration of T-cell cytokines in the absence of additional stimulant: TNFα (T-lymphocytes [33]): -46 pg/mL
% Cytokine decrease in the presence of LPS/ConA: IFNγ (T-lymphocytes [34]): 34.9%
% Cytokine decrease in the presence of LPS/ConA: IL-2 (T-lymphocytes [34]): 80.7%
% Cytokine decrease in the presence of LPS/ConA: IL-4 (T-lymphocytes [34]): 37.7%
% Cytokine decrease in the presence of LPS/ConA: IL-6 (T-lymphocytes [34]): −16.4%
% Cytokine decrease in the presence of LPS/ConA: IL-13 (T-lymphocytes [34]): 85.3%
% Cytokine decrease in the presence of LPS/ConA: TNFα (T-lymphocytes [34]): 38.2%
% Cytokine decrease in the presence of LPS/ConA: IFNγ (T-lymphocytes [35]): 60.2%
% Cytokine decrease in the presence of LPS/ConA: IL-2 (T-lymphocytes [35]): 62.3%
% Cytokine decrease in the presence of LPS/ConA: IL-4 (T-lymphocytes [35]): 65.5%
% Cytokine decrease in the presence of LPS/ConA: IL-6 (T-lymphocytes [35]): 24.8%
% Cytokine decrease in the presence of LPS/ConA: IL-13 (T-lymphocytes [35]): 48.2%
% Cytokine decrease in the presence of LPS/ConA: TNFα (T-lymphocytes [35]): 7.1%

Compound: VLKIKVKIWVVK (not fully specified; also: D-amino acid(s), positions not given here) [Peptide D-3007]
peptide concentration that inhibited more than 90% of adhered biofilm biomass, E. coli (O157:H7) (E. coli O157:H7): 4 µM
peptide concentration that inhibited more than 90% of adhered biofilm biomass, S. typhimurium (ATCC 14028) [36]: 4 µM
peptide concentration that inhibited more than 90% of adhered biofilm biomass, S. aureus (C623) [37]: 8 µM
peptide concentration that inhibited more than 90% of adhered biofilm biomass, P. aeruginosa (PAO1) (P. aeruginosa (PAO1)): 8 µM
